Values quoted from earlier work in patent US11051972B1 (priority 2020, dated 2021).
Where two headings read alike, the source gives them in different places.

Experiments:
[1] = tested on: novel coronavirus (COVID-19); conditions: multi-center study in China, journal article [14, 20]

SMILES	% Excreted Unchanged or Active Metabolite in Urine (in vivo)	effectiveness against the novel coronavirus (COVID-19) [1]	% Excreted Unchanged or Active Metabolite in Urine (urine)
CCN(CC)CCCC(C)Nc1ccnc2cc(Cl)ccc12 (stereo not shown) [Chloroquine]	70%	effective	–
C[C@H]1COc2c(N3CCN(C)CC3)c(F)cc3c(=O)c(C(=O)O)cn1c23 [Levaquin]	85%	–	–
CCC(CC)[C@H](NC(C)=O)[C@@H]1[C@H](O)[C@@H](C(=O)O)C[C@H]1N=C(N)N [Rapivab]	–	–	90%
CC(=O)N[C@H]1[C@H]([C@H](O)[C@H](O)CO)OC(C(=O)O)=C[C@@H]1N=C(N)N [Relenza]	–	–	90%
CCC(CC)COC(=O)[C@H](C)N[P@](=O)(OC[C@H]1O[C@@](C#N)(c2ccc3c(N)ncnn23)[C@H](O)[C@@H]1O)Oc1ccccc1 [Remdesevir]	–	–	60%
CCOC(=O)C1=C[C@@H](OC(CC)CC)[C@H](NC(C)=O)[C@@H](N)C1 [Tamiflu]	–	–	90%
